Experimental data as given in patent US12331053B2, “Method for obtaining amorphous remimazolam besylate” (MOEHS IBERICA, S.L., priority 2019, dated 2025).
Read-outs that look alike come from different tables or passages of the source.

Key:
[1] = Stability study: storage in climatic chambers, solid form checked by XRPD and DSC; assay type: physicochemical; conditions: for solid form stability after storage (XRPD) / solid form stability after storage (XRPD, DSC): 40° C. and 80% relative humidity; for solid form stability after storage (XRPD): 6 months
Experimental: The XRPD analysis was performed using a Siemens model D-5000 X-ray powder diffractometer equipped with a copper anode. The radiation used is CuKα with a wavelength of 1.541838 Å. Scanning parameters: 4-50 degrees 2θ, continuous scan, ratio: 1.2 degrees/minute.
The differential scanning calorimetry (DSC) analysis was performed in a Mettler Toledo 822e apparatus with STARe SW15.00 software. Parameters: range of heating from 25 to 300° C. with a ramp of 20° C./min and a N2 flow of 50 mL/min. The measurement was taken with a closed perforated capsule.
This is proven in the stability results of the product in amorphous form obtained according to assays 1.5 (lyophilization in acetonitrile) and 1.6 (lyophilization in water) indicated in Table 1. To determine said stability, the product was stored in climatic chambers under two different conditions: a) temperature of 40° C. and 80% relative humidity and b) temperature of 25° C. and 60% relative humidity.

[2] = lyophilized alone, without excipients; cited from earlier work
[3] = free base, cited from earlier work

With `COC(=O)CC[C@@H]1N=C(c2ccccn2)c2cc(Br)ccc2-n2c(C)cnc21.O=S(=O)(O)c1ccccc1` [Assay 1.5, remimazolam besylate] the “solid form stability after storage (XRPD)” value [1] was “still maintains the initial characteristics in terms of the amorphous form”, the “solid form stability after storage (XRPD, DSC)” value ([1]; 15 days) was “still maintains the initial characteristics in terms of the amorphous form” and the “solid form stability after storage (XRPD, DSC)” value ([1]; 30 days) was “still maintains the initial characteristics in terms of the amorphous form”.

With `COC(=O)CC[C@@H]1N=C(c2ccccn2)c2cc(Br)ccc2-n2c(C)cnc21.O=S(=O)(O)c1ccccc1` [Comparative Example 3, remimazolam besylate] the “solid form after storage (XRPD)” value ([1]; 4° C., one month) was “crystalline form 2” and the “solid form after storage (XRPD, DSC)” value ([1]; 40° C. and 80% RH, one week) was “crystalline form 2”.

For `COC(=O)CC[C@@H]1N=C(c2ccccn2)c2cc(Br)ccc2-n2c(C)cnc21.O=S(=O)(O)c1ccccc1` [remimazolam besylate], the stability after lyophilization [2] is listed as “did not result in satisfactory stability”.

In the case of `COC(=O)CC[C@@H]1N=C(c2ccccn2)c2cc(Br)ccc2-n2c(C)cnc21` [remimazolam, methyl 3-{(4S)-8-bromo-1-methyl-6-(pyridin-2-yl)-4H-imidazo[1,2-a][1,4]benzodiazepin-4-yl}propanoate], the storage stability ([3]; 40° C. and 75% relative humidity, open vial) is given as “behaves like a deliquescent solid”, the storage stability ([3]; 60° C. and ambient humidity, closed vial) is given as “behaves like a deliquescent solid” and the storage stability ([3]; stored at 5° C.) is given as “stable”.

In the case of `COC(=O)CC[C@@H]1N=C(c2ccccn2)c2cc(Br)ccc2-n2c(C)cnc21.O=S(=O)(O)c1ccccc1` [Assay 1.6, remimazolam besylate], the “solid form stability after storage (XRPD)” value [1] is reported as “still maintains the initial characteristics in terms of the amorphous form” and the “solid form stability after storage (XRPD, DSC)” value ([1]; 15 days) is reported as “still maintains the initial characteristics in terms of the amorphous form”.
